Counter-ions that a name gives are not always drawn.
Test system: HepaRG
Experiment: LDH release cytotoxicity, % of total lysis control; higher = more cytotoxic
Details: 48 h
Summary of the method: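 Single-lot HepaRG cells in collagen I-coated 96-well plates were treated for 48 h in serum-free induction medium containing 0.5% DMSO with test chemicals in eight-point half-log series up to 100 µM. For total lysis, wells received 0.1% Triton X. LDH in 50 µL spent medium was assayed by resorufin fluorescence with CytoTox-ONE. Percent cytotoxicity was normalized to the on-plate vehicle and total lysis controls, with duplicates averaged.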

S=C(S)NCCNC(=S)S [Maneb]
Details | LDH release cytotoxicity [%]
0.031623 µM | -0.532
0.1 µM | -3.72
0.316228 µM | -2.09
1 µM | -4.15
3.16228 µM | 25.2
10 µM | 75.5
31.6228 µM | 77.2
100 µM | 77.7

CC#Cc1cc(C)nc(Nc2ccccc2)n1 [Mepanipyrim]
Details | LDH release cytotoxicity [%]
0.03162 µM | -1.35
0.1 µM | -1.3
0.3162278 µM | -1.45
1 µM | -1.69
3.16228 µM | -0.377
10 µM | 0.835
31.6228 µM | 2.41
100 µM | 11.4

[Cl][Hg][Cl] [Mercuric chloride]
Details | LDH release cytotoxicity [%]
0.03162 µM | -0.633
0.1 µM | 0.0218
0.3162278 µM | -0.338
1 µM | -0.378
3.16228 µM | 0.165
10 µM | -0.398
31.6228 µM | -1.52
100 µM | -4.6

CS(=O)(=O)c1ccc(C(=O)C2C(=O)CCCC2=O)c([N+](=O)[O-])c1 [Mesotrione]
Details | LDH release cytotoxicity [%]
0.0320971 µM | 0.286
0.1015 µM | -0.676
0.320971 µM | -1.35
1.015 µM | -0.8
3.2097118 µM | -0.694
10.15 µM | -1.17
32.0971 µM | -1.09
101.5 µM | -1.76

COCC(=O)N(c1c(C)cccc1C)C(C)C(=O)OC (stereo not given) [Metalaxyl]
Details | LDH release cytotoxicity [%]
0.03162 µM | -1.86
0.1 µM | -0.811
0.3162278 µM | -0.303
1 µM | -0.996
3.16228 µM | -0.0482
10 µM | -0.0413
31.6228 µM | 0.228
100 µM | 2.83

CNC(=S)S [Metam-sodium hydrate]
Details | LDH release cytotoxicity [%]
0.03162 µM | -0.462
0.1 µM | -0.61
0.3162278 µM | -0.991
1 µM | -1.25
3.16228 µM | -0.486
10 µM | -0.405
31.6228 µM | -0.218
100 µM | 1.15

C=C(C)C(N)=O [Methacrylamide]
Details | LDH release cytotoxicity [%]
0.03162 µM | 0.244
0.1 µM | -1.11
0.3162278 µM | -1.39
1 µM | -1.09
3.16228 µM | -1.32
10 µM | -0.285
31.6228 µM | -0.444
100 µM | 2.64

CCC(=O)C(CC(C)N(C)C)(c1ccccc1)c1ccccc1 (stereo not given) [Methadone hydrochloride]
Details | LDH release cytotoxicity [%]
0.0229265 µM | -1.18
0.0725 µM | -0.8
0.2292651 µM | -1.01
0.725 µM | -1.59
2.29265 µM | -0.919
7.25 µM | -0.638
22.926513 µM | 0.191
72.5 µM | 7.87

COP(N)(=O)SC (stereo not given) [Methamidophos]
Details | LDH release cytotoxicity [%]
0.03162 µM | 5.78
0.1 µM | 2.73
0.3162278 µM | 2.4
1 µM | 3.67
3.16228 µM | 3.79
10 µM | 3.76
31.6228 µM | 5.99
100 µM | 6.57

C1N2CN3CN1CN(C2)C3 [Methenamine]
Details | LDH release cytotoxicity [%]
0.0322552 µM | -1.06
0.102 µM | -1.56
0.322552 µM | -1.99
1.02 µM | -2.63
3.2255232 µM | -1.7
10.2 µM | -1.59
32.2552 µM | -1.01
102 µM | 0.286

COc1nn(CSP(=S)(OC)OC)c(=O)s1 [Methidathion]
Details | LDH release cytotoxicity [%]
0.03162 µM | 1.04
0.1 µM | -1.02
0.3162278 µM | -0.883
1 µM | -0.575
3.16228 µM | 0.0624
10 µM | 1.08
31.6228 µM | 0.461
100 µM | 1.33

CN1CC=NC1=S [Methimazole]
Details | LDH release cytotoxicity [%]
0.03162 µM | -0.734
0.1 µM | -1.69
0.3162278 µM | -2.04
1 µM | -2.56
3.16228 µM | -1.77
10 µM | -1.81
31.6228 µM | -1.83
100 µM | -0.15

CNC(=O)ON=C(C)SC [Methomyl]
Details | LDH release cytotoxicity [%]
0.03162 µM | -0.681
0.1 µM | -1.04
0.3162278 µM | -0.724
1 µM | -0.623
3.16228 µM | -1.04
10 µM | -0.128
31.6228 µM | -1.13
100 µM | -0.0692

CN(Cc1cnc2nc(N)nc(N)c2n1)c1ccc(C(=O)NC(CCC(=O)O)C(=O)O)cc1 (stereo not given) [Methotrexate]
Details | LDH release cytotoxicity [%]
0.03162 µM | -2.75
0.1 µM | -1.02
0.3162278 µM | 0.713
1 µM | 0.595
3.16228 µM | 2.21
10 µM | 1.79
31.6228 µM | 3.1
100 µM | 3.39

COc1ccc(C(c2ccc(OC)cc2)C(Cl)(Cl)Cl)cc1 [Methoxychlor]
Details | LDH release cytotoxicity [%]
0.0314647 µM | -0.145
0.0995 µM | -0.434
0.3146466 µM | -0.0516
0.995 µM | 0.115
3.14647 µM | 0.0841
9.95 µM | -0.153
31.4647 µM | 0.12
99.5 µM | 17

COc1cccc(C(=O)NN(C(=O)c2cc(C)cc(C)c2)C(C)(C)C)c1C [Methoxyfenozide]
Details | LDH release cytotoxicity [%]
0.03162 µM | -1.25
0.1 µM | -1.31
0.3162278 µM | -0.377
1 µM | -1.71
3.16228 µM | -1.43
10 µM | -0.152
31.6228 µM | 0.244
100 µM | 3.13

COC(=O)c1ccccc1N [Methyl 2-aminobenzoate]
Details | LDH release cytotoxicity [%]
0.03162 µM | -1.17
0.1 µM | 0.00334
0.3162278 µM | 0.277
1 µM | -0.0267
3.16228 µM | 0.248
10 µM | 0.495
31.6228 µM | 0.0802
100 µM | 1.28

CCCCCCCCCCCC(=O)OC [Methyl dodecanoate]
Details | LDH release cytotoxicity [%]
0.03162 µM | 0.879
0.1 µM | -1.07
0.3162278 µM | -1.35
1 µM | -1.18
3.16228 µM | -0.971
10 µM | -0.971
31.6228 µM | -1.41
100 µM | 0.025

CN=C=S [Methyl isothiocyanate]
Details | LDH release cytotoxicity [%]
0.031623 µM | -2.69
0.1 µM | -1.72
0.316228 µM | -3.56
1 µM | -4.608
3.16228 µM | -3.71
10 µM | -2.9
31.6228 µM | 0.153
100 µM | 49.2

COS(C)(=O)=O [Methyl methanesulfonate]
Details | LDH release cytotoxicity [%]
0.03162 µM | -1.45
0.1 µM | -1.11
0.3162278 µM | -1.7
1 µM | -0.993
3.16228 µM | -1.33
10 µM | -1.07
31.6228 µM | -1.15
100 µM | 0.825

— the supplement of paper PMC7840683
